Laboratory results reported in paper PMC12250835, “Novel 3-Methyl-1,6-Diazaphenothiazine as an Anticancer Agent—Synthesis, Structure, and In Vitro Anticancer Evaluation” (Molecules, 2025).

Legend:
[1] = system: C32 amelanotic melanoma cells; assay: WST-1 cell viability assay, C32; format: cell-based; details: Homo sapiens, concentration range 1–100 µM
Method: (§1) Human A375, C32 amelanotic and COLO829, G361 melanotic melanoma cells, purchased from ATCC (ATCC Manassas, VA, USA), were incubated in a humidified 5% CO2 incubator at 37 °C. The cells were cultured in the recommended medium supplemented with inactivated fetal bovine serum and the following antibiotics: penicillin (100 U/mL), neomycin (10 μg/mL) and amphotericin B (0.25 μg/mL). Treatment with the studied compounds (B6–B10) began 24 h after seeding. The analyzed compound solutions were obtained by diluting stock solutions in a culture medium. The analysis via WST-1 assay was used for compound concentrations ranging from 1 µM to 100 µM. Other studies, concerning the assessment of intracellular GSH levels and apoptosis, were performed on the B8 and B10 derivatives at concentrations of 50 μM and 100 µM.
(§2) The viability of cells was assessed using the cell proliferation reagent WST-1. The reagent is a tetrazolium salt (slightly red) that can be reduced in viable cells to formazan dye (dark red) by mitochondrial dehydrogenases. In the analysis, WST-1 was added to cells cultured in 96-well microplates (10 µL/well) 3 h before the measurement. Absorbance at 440 nm was read using a microplate reader (Infinite 200 PRO, TECAN, Männedorf, Switzerland), and 650 nm was used as the reference wavelength. In the experiment, control samples were normalized to 100%. All the examined samples were calculated as percentages of the control.

[2] = system: A375 amelanotic melanoma cells; assay: WST-1 cell viability assay, A375; format: cell-based; details: Homo sapiens, A-375, concentration range 1–100 µM
Method: as §1, §2

[3] = system: normal human fibroblasts (HDF); assay: WST-1 cell viability assay, HDF; format: cell-based; details: for IC50: Homo sapiens, Fibroblast, concentration range 1–100 µM; for reduction in cell viability in comparison to the control: concentrations equal to and above 25 µM, all incubation time points
Method: [Worded in the source for another cell line; this cell line is reported under the same test.] as §1, §2

[4] = system: COLO829 melanotic melanoma cells; assay: WST-1 cell viability assay, COLO829; format: cell-based; details: Homo sapiens, COLO-829, concentration range 1–100 µM
Method: as §1, §2

[5] = system: G361 melanotic melanoma cells; assay: WST-1 cell viability assay, G361; format: cell-based; details: Homo sapiens, G-361, concentration range 1–100 µM
Method: as §1, §2

[6] = system: G361 melanotic melanoma cells; assay: Vitality assay, intracellular GSH level, G361; format: cell-based, human; details: 72 h
Method: as §1
(§3) All the experiments were performed using the fluorescence image cytometer NucleoCounter® NC-3000™ (ChemoMetec, Lillerød, Denmark). For the vitality assay, treatment cells were stained with solution 5 according to the manufacturer’s protocol and analysis was conducted using NucleoView NC-3000 software 2.1.25.12 (ChemoMetec, Lillerød, Denmark) according to the vitality assay protocol.

[7] = system: G361 melanotic melanoma cells; assay: DNA fragmentation assay, G361; format: cell-based, human; details: G361, 100 µM, 72 h
Method: as §1
(§4) For the DNA fragmentation assay, cells were fixed with 70% cold ethanol (24 h at 0–4 °C). In the next step of the analysis, the cell samples were washed with PBS, centrifuged, and stained with solution 3 (ChemoMetec, Lillerød, Denmark) containing DAPI and 0.1% triton X-100 in PBS. The analysis was conducted according to the DNA fragmentation assay protocol.

[8] = system: G361 melanotic melanoma cells; assay: Mitochondrial potential assay (JC-1), G361; format: cell-based, human; details: 72 h
Method: as §1
(§5) The mitochondrial potential assay was conducted using fluorescent cationic dye JC-1, which accumulates in the mitochondria in a potential-dependent manner. After cell treatment, samples were suspended in 12.5 µL of solution 7 (JC-1) (ChemoMetec, Lillerød, Denmark) and then incubated at 37 C for 10 min. In the next step, the […] cells were centrifuged for 5 min at 400× g, washed twice with PBS and resuspended in 0.25 mL of solution 8 (DAPI) (ChemoMetec, Lillerød, Denmark). In the last step of sample preparation, cells were loaded into 8-chamber NC-Slides A8™ and analyzed immediately using the mitochondrial potential assay protocol. Scatterplots of the obtained results were used to demarcate the percentage of cells with a different mitochondrial membrane potential.

[9] = system: C32 amelanotic melanoma cells; assay: DNA fragmentation assay, C32; format: cell-based, human; details: 72 h
Method: as §1, §4

[10] = system: C32 amelanotic melanoma cells; assay: Vitality assay, intracellular GSH level, C32; format: cell-based, human; details: 72 h
Method: as §1, §3

[11] = system: C32 amelanotic melanoma cells; assay: Mitochondrial potential assay (JC-1), C32; format: cell-based, human; details: 72 h
Method: as §1, §5

[12] = system: COLO829 cells; parameters: method as in PMID 31410885; details: 50 µM, 72 h incubation; cited from earlier work
[13] = system: C32 cells; parameters: method as in PMID 31432325; details: 50 µM, 72 h incubation; cited from earlier work

IC50 ([1]; C32, 24 h exposure)	IC50 ([1]; C32, 48 h exposure)	IC50 ([1]; C32, 72 h exposure)	IC50 ([2]; A375, 24 h exposure)	IC50 ([2]; A375, 48 h exposure)	IC50 ([2]; A375, 72 h exposure)	IC50 ([4]; COLO829, 24 h exposure)	IC50 ([4]; COLO829, 48 h exposure)	IC50 ([4]; COLO829, 72 h exposure)	IC50 ([5]; G361, 24 h exposure)	IC50 ([5]; G361, 48 h exposure)	IC50 ([5]; G361, 72 h exposure)	SMILES	IC50 ([3]; 24 h exposure)	IC50 ([3]; 48 h exposure)	IC50 ([3]; 72 h exposure)	reduction in cell viability in comparison to the control [3]	cells with low GSH levels (Q1ll, GSH-depleted cells) ([6]; G361, 50 µM)	cells with low GSH levels (Q1ll, GSH-depleted cells) ([6]; G361, 100 µM)	cells with fragmented DNA (M1) [7]	depolarized (early apoptotic) cells (Q1lr) ([8]; G361, 50 µM)	further results
94.3 µM	76.1 µM	18.1 µM	226 µM	97.9 µM	40 µM	262 µM	59 µM	30.2 µM	134 µM	56.2 µM	22.9 µM	Cc1cnc2c(c1)Sc1ncccc1N2 [B6, 10H-3-methyl-1,6-diazaphenothiazine]	83.1 µM	40.1 µM	31.9 µM	> 20%	–	–	–	–	–
129 µM	105 µM	59.6 µM	393 µM	166 µM	91.2 µM	220 µM	64.1 µM	31.4 µM	168 µM	79.9 µM	24.6 µM	C=CCN1c2cccnc2Sc2cc(C)cnc21 [B8, 3-metyhl-10-allyl-1,6-diazaphenothiazine]	–	142 µM	125 µM	–	21%	33%	12%	13%	viability reduction in comparison to the control ([3]; 75 µM and 100 µM, 48 h and 72 h of incubation): > 20%; depolarized (early apoptotic) cells (Q1lr) ([8]; G361, 100 µM): 26%; cells with fragmented DNA (M1) ([9]; C32, 50 µM): 11%; cells with fragmented DNA (M1) ([9]; C32, 100 µM): 22%; cells with low GSH levels (Q1ll, GSH-depleted cells) ([10]; C32, 50 µM): 20%; cells with low GSH levels (Q1ll, GSH-depleted cells) ([10]; C32, 100 µM): 36%; depolarized cells, decreased mitochondrial membrane potential (Q1lr) ([11]; C32, 50 µM): 18%; depolarized cells, decreased mitochondrial membrane potential (Q1lr) ([11]; C32, 100 µM): 25%
95.8 µM	87 µM	42.7 µM	511 µM	109 µM	60.4 µM	178 µM	75.5 µM	37 µM	132 µM	100 µM	43 µM	Cc1cnc2c(c1)Sc1ncccc1N2Cc1ccccc1 [B10, 3-methyl-10-benzyl-1,6-diazaphenothiazine]	1930 µM	932 µM	656 µM	–	13%	25%	10%	6%	decrease of viability of cells ([3]; at any measurement point (1–100 µM; 24 h, 48 h, 72 h)): ≤ 10%; depolarized (early apoptotic) cells (Q1lr) ([8]; G361, 100 µM): 17%; cells with fragmented DNA (M1) ([9]; C32, 100 µM): 10%; cells with low GSH levels (Q1ll, GSH-depleted cells) ([10]; C32, 50 µM): 12%; cells with low GSH levels (Q1ll, GSH-depleted cells) ([10]; C32, 100 µM): 22%; depolarized cells, decreased mitochondrial membrane potential (Q1lr) ([11]; C32, 50 µM): 15%; depolarized cells, decreased mitochondrial membrane potential (Q1lr) ([11]; C32, 100 µM): 21%

Second part, the molecule before the results:

SMILES	IC50 ([1]; C32, 24 h exposure)	IC50 ([1]; C32, 48 h exposure)	IC50 ([1]; C32, 72 h exposure)	IC50 ([2]; A375, 24 h exposure)	IC50 ([2]; A375, 48 h exposure)	IC50 ([2]; A375, 72 h exposure)	IC50 ([4]; COLO829, 24 h exposure)	IC50 ([4]; COLO829, 48 h exposure)	IC50 ([4]; COLO829, 72 h exposure)	IC50 ([5]; G361, 24 h exposure)	IC50 ([5]; G361, 48 h exposure)	IC50 ([5]; G361, 72 h exposure)	IC50 ([3]; 24 h exposure)	IC50 ([3]; 48 h exposure)	IC50 ([3]; 72 h exposure)	reduction in cell viability in comparison to the control [3]	cells with low GSH levels (Q1ll, GSH-depleted cells) ([6]; G361, 50 µM)	cells with low GSH levels (Q1ll, GSH-depleted cells) ([6]; G361, 100 µM)	cells with fragmented DNA (M1) [7]	depolarized (early apoptotic) cells (Q1lr) ([8]; G361, 50 µM)	further results
Cc1cnc2c(c1)Sc1ncccc1N2C [B7, 3,10-dimethyl-1,6-diazaphenothiazine]	91.4 µM	89.7 µM	22.2 µM	235 µM	99.5 µM	17.6 µM	292 µM	64.8 µM	35.5 µM	194 µM	75.4 µM	41.6 µM	55.4 µM	31.7 µM	30.5 µM	> 20%	–	–	–	–	–
C#CCN1c2cccnc2Sc2cc(C)cnc21 [B9, 3-methyl-10-propargyl-1,6-diazaphenothiazine]	120 µM	167 µM	66.4 µM	698 µM	171 µM	138 µM	136 µM	61.5 µM	49.5 µM	116 µM	97 µM	57 µM	57.4 µM	22.2 µM	11.3 µM	> 20%	–	–	–	–	–
CN(C)/N=N/c1[nH]cnc1C(N)=O [dacarbazine]	–	–	–	–	–	–	–	–	–	–	–	–	–	–	–	–	–	–	–	–	maximum reduction in COLO829 cell viability [12]: about 25%; reduction in C32 cell viability (the analyzed parameter) [13]: about 50%
